Results from ChEMBL document CHEMBL6087451, “Design, Synthesis, and Biological Evaluation of 2-Arylaminopyrimidine Derivatives as Dual Cathepsin L and JAK Inhibitors for the Treatment of Acute Lung Injury” (J Med Chem, 2025).
The source made the active and inactive calls. No cut-off for these calls is given here.

Columns and labels:
RAW264.7 [1] = test: Anti-inflammatory activity against mouse RAW264.7 cells assessed as inhibition of LPS-induced IL-1beta level at 50 to 500 nM; assay type: functional, cell-based; conditions: dose 50-500 nM
RAW264.7 [2] = test: Anti-inflammatory activity against mouse RAW264.7 cells assessed as inhibition of LPS-induced TNF-alpha mRNA level at 50 to 500 nM by RT-qPCR analysis; assay type: functional, cell-based; conditions: dose 50-500 nM
[3] = Half life in Sprague-Dawley rat at 3.5 mg/kg, iv measured for 24 hrs by LC-MS/MS analysis; assay type: ADME, organism-based; conditions: in vivo
RAW264.7 [4] = test: Anti-inflammatory activity against mouse RAW264.7 cells assessed as inhibition of LPS-induced iNOS level by Western blot analysis; assay type: functional, cell-based; conditions: dose 50-500 nM
[5] = Half life in Sprague-Dawley rat at 3.5 mg/kg, ip measured for 24 hrs by LC-MS/MS analysis; assay type: ADME, organism-based; conditions: in vivo
HBE [6] = test: Anti-inflammatory activity against HBE cells assessed as inhibition of LPS-induced IL-8 level pretreated for 30 mins followed by LPS treatment for 24 hrs by ELISA; conditions: Homo sapiens, dose <= 5.0 µM, time 24.5 hrs
Procathepsin L [7] = target: T1, Procathepsin L (Homo sapiens, UniProt P07711); test: Induction of thermal stabilization of pro-CTSL in protein lysate extracted from human THP-1 cells pretreated for 6 hrs followed by heat exposure at 37 to 62 degreeC for 3 mins by CETSA; assay type: subcellular; conditions: time 363.0 min
T1 sequence (P07711 114-333 limits assumed): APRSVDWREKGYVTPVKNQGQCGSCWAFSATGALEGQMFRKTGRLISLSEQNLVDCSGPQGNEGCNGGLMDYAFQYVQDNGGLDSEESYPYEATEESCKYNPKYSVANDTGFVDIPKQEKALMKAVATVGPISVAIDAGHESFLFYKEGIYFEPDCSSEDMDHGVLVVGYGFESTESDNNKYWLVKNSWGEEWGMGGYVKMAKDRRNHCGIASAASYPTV

[8] = AUC (0 to t) in Sprague-Dawley rat at 3.5 mg/kg, iv measured for 24 hrs by LC-MS/MS analysis; assay type: ADME, organism-based; conditions: in vivo
RAW264.7 [9] = test: Anti-inflammatory activity against mouse RAW264.7 cells assessed as inhibition of LPS-induced IL-6 mRNA level at 50 to 500 nM by RT-qPCR analysis; assay type: functional, cell-based; conditions: dose 50-500 nM
HBE [10] = test: Anti-inflammatory activity against HBE cells assessed as inhibition of LPS-induced IL-6 level pretreated for 30 mins followed by LPS treatment for 24 hrs by ELISA; conditions: Homo sapiens, dose <= 5.0 µM, time 24.5 hrs
RAW264.7 [11] = test: Anti-inflammatory activity against mouse RAW264.7 cells transfected with CTSL siRNA assessed as inhibition of LPS-induced IL-6 level by Western blot analysis; assay type: functional, cell-based
Mus musculus [12] = test: (§1) Anti-inflammatory activity in C57BL/6 mouse model of LPS-induced acute lung injury assessed as decrease in disruption of endothelial cell structures in lung at 10 mg/kg, ip treated for 3 days followed by LPS treatment after 1 hr post-compound administration on fourth day measured after 18 hrs post-LPS treatment by H and E staining based analysis; assay type: functional, organism-based; conditions: time 91.0 hrs
Mus musculus [13] = test: as §1, with “inflammatory” for “disruption of endothelial”, “infiltration” for “structures”; assay type: functional, organism-based; conditions: time 91.0 hrs
[14] = AUC (0 to t) in Sprague-Dawley rat at 3.5 mg/kg, ip measured for 24 hrs by LC-MS/MS analysis; assay type: ADME, organism-based; conditions: in vivo
RAW264.7 [15] = test: Anti-inflammatory activity against mouse RAW264.7 cells assessed as inhibition of LPS-induced p38 phosphorylation at 50 to 500 nM by Western blot analysis; assay type: functional, cell-based; conditions: dose 50-500 nM
Mus musculus [16] = test: as §1, with “epithelial” for “endothelial”; assay type: functional, organism-based; conditions: time 91.0 hrs
Mus musculus [17] = test: as §1, with “TNF-alpha mRNA level” for “disruption of endothelial cell structures”, “RT-qPCR” for “H and E staining based”; assay type: functional, organism-based; conditions: time 91.0 hrs
cells = conditions: Homo sapiens, HBE
[18] = AUC (0 to infinity) in Sprague-Dawley rat at 3.5 mg/kg, po measured for 24 hrs by LC-MS/MS analysis; assay type: ADME, organism-based; conditions: in vivo
[19] = AUC (0 to infinity) in Sprague-Dawley rat at 3.5 mg/kg, iv measured for 24 hrs by LC-MS/MS analysis; assay type: ADME, organism-based; conditions: in vivo
HBE [20] = test: Anti-inflammatory activity against HBE cells assessed as inhibition of LPS-induced p-p65 level pretreated for 30 mis followed by LPS treatment for 16 hrs by Western blot analysis; assay type: functional, cell-based; conditions: Homo sapiens, dose 0.5-5 µM, time 16.5 hrs
[21] = Cmax in Sprague-Dawley rat at 3.5 mg/kg, ip measured for 24 hrs by LC-MS/MS analysis; assay type: ADME, organism-based; conditions: in vivo
RAW264.7 [22] = test: Anti-inflammatory activity against mouse RAW264.7 cells assessed as inhibition of LPS-induced IL-1beta level
[23] = Anti-inflammatory activity against HBE cells assessed as inhibition of LPS-induced IL-6 level at 5 uM pretreated for 30 mins followed by LPS treatment for 24 hrs by ELISA relative to control; assay type: functional; conditions: Homo sapiens, time 24.5 hrs
Mus musculus [24] = test: as §1, with “pulmonary edema” for “disruption of endothelial cell structures”; assay type: functional, organism-based; conditions: time 91.0 hrs
RAW264.7 [25] = test: Anti-inflammatory activity against mouse RAW264.7 cells assessed as inhibition of LPS-induced COX-2 level by Western blot analysis; assay type: functional, cell-based; conditions: dose 50-500 nM
[26] = target: Non-receptor tyrosine-protein kinase TYK2 (Homo sapiens, UniProt P29597); test: Inhibition of TYK2 (unknown origin) using TK-biotin as substrate incubated for 120 mins in presence of ATP by HTRF assay
Non-receptor tyrosine-protein kinase TYK2, sequence (P29597 whole entry): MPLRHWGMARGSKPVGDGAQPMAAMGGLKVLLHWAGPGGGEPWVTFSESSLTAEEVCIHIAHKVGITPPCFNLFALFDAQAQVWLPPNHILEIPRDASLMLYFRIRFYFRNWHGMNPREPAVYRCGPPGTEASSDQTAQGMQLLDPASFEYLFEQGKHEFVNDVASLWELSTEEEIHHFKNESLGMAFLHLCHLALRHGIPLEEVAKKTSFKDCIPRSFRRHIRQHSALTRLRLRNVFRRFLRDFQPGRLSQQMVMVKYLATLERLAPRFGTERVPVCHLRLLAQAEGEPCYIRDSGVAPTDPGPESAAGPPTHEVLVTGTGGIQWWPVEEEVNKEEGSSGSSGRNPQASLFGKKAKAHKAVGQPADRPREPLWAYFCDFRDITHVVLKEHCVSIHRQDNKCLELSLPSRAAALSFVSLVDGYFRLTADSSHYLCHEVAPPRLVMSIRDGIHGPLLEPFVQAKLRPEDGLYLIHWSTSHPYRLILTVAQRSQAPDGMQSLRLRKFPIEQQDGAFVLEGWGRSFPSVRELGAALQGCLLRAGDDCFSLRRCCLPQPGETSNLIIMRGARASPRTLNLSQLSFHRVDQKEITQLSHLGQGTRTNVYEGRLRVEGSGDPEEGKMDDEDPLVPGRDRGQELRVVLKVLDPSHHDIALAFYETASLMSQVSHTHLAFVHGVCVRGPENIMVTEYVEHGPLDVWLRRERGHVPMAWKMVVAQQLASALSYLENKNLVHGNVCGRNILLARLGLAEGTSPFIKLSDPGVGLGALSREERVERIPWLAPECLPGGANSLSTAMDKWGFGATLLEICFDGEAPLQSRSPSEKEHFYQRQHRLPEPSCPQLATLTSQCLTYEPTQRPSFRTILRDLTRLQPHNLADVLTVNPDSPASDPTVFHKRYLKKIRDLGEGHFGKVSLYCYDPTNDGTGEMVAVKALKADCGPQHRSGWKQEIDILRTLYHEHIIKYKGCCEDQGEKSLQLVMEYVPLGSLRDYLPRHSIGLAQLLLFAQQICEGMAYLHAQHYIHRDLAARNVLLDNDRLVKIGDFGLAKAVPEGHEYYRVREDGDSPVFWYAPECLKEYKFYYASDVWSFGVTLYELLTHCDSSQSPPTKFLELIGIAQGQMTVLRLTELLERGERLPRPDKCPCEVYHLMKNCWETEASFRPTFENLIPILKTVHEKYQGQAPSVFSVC

Mus musculus [27] = test: as §1, with “IL-1beta mRNA level” for “disruption of endothelial cell structures”, “RT-qPCR” for “H and E staining based”; assay type: functional, organism-based; conditions: time 91.0 hrs
[28] = target: Receptor-type tyrosine-protein kinase FLT3 (Homo sapiens) (UniProt P36888); test: Inhibition of FLT3 (unknown origin) at 1 uM by kinase profiling analysis relative to control
Receptor-type tyrosine-protein kinase FLT3 (Homo sapiens), sequence (P36888 whole entry): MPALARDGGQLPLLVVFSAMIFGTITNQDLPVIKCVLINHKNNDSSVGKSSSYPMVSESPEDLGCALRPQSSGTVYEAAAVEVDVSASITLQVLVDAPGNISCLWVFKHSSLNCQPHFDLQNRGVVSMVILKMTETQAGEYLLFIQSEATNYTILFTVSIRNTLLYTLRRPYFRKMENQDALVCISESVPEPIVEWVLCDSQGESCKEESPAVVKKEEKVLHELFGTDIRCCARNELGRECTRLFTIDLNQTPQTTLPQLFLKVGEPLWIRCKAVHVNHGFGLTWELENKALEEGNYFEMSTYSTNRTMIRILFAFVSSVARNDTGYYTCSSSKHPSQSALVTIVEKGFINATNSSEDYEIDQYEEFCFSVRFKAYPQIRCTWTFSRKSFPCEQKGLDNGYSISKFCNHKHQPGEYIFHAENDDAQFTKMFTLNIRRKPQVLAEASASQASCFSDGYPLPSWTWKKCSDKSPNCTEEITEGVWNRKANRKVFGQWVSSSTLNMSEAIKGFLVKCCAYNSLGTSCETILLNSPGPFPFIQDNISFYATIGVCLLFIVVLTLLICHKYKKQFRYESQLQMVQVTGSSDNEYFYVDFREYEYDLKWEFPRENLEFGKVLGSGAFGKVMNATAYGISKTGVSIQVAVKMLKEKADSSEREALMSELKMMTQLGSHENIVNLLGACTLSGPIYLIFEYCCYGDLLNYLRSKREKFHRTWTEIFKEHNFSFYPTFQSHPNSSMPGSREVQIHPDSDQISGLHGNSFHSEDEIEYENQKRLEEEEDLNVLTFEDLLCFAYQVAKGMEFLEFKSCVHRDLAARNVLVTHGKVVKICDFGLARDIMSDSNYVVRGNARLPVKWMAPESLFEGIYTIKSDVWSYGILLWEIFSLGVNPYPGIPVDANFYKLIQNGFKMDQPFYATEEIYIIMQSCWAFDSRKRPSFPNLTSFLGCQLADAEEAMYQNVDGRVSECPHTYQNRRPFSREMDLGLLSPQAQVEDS

Mus musculus [29] = test: as §1, with “IL-6 mRNA level” for “disruption of endothelial cell structures”, “RT-qPCR” for “H and E staining based”; assay type: functional, organism-based; conditions: time 91.0 hrs
[30] = Anti-inflammatory activity against HBE cells assessed as inhibition of LPS-induced IL-8 level at 5 uM pretreated for 30 mins followed by LPS treatment for 24 hrs by ELISA relative to control; assay type: functional; conditions: Homo sapiens, time 24.5 hrs
Procathepsin L [31] = target: T1, Procathepsin L; test: Inhibition of CTSL maturation in HBE cells pretreated for 30 mis followed by LPS treatment for 16 hrs by Western blot analysis; assay type: cell-based; conditions: dose 0.5-5 µM, time 16.5 hrs
[32] = Oral bioavailability in Sprague-Dawley rat at 3.5 mg/kg measured for 24 hrs by LC-MS/MS analysis; assay type: ADME, organism-based; conditions: in vivo
[33] = Cmax in Sprague-Dawley rat at 3.5 mg/kg, po measured for 24 hrs by LC-MS/MS analysis; assay type: ADME, organism-based; conditions: in vivo
[34] = Cmax in Sprague-Dawley rat at 3.5 mg/kg, iv measured for 24 hrs by LC-MS/MS analysis; assay type: ADME, organism-based; conditions: in vivo

half-life [3]: 8.29 h | half-life [5]: 4.73 h | Activity (Procathepsin L [7]): Active | AUC(0-t) at 24 h [8]: 633 ng·h/mL | AUC(0-t) at 24 h [14]: 407 ng·h/mL | IC50 (cells): 1350 nM | AUC(0-inf) [18]: 159 ng·h/mL | AUC(0-inf) [19]: 680 ng·h/mL | Cmax [21]: 193 ng/mL | IC50 (RAW264.7 [22]): 91.2 nM | IC50 [26]: 173 nM | inhibition [28]: 103% | inhibition (Procathepsin L [31]): Dose-dependent-effect | bioavailability [32]: 24.9% | Cmax [33]: 65.2 ng/mL | Cmax [34]: 655 ng/mL
Compound: Cl.Cn1cc(-c2ccnc(Nc3cccc(N)c3)n2)c2ccccc21
inhibition (RAW264.7 [1]): Active | inhibition (RAW264.7 [2]): Active | inhibition (RAW264.7 [4]): Dose-dependent-effect | inhibition (HBE [6]): Dose-dependent-effect | inhibition (RAW264.7 [9]): Active | inhibition (HBE [10]): Dose-dependent-effect | inhibition (RAW264.7 [11]): inactive | Activity (Mus musculus [12]): Active | Activity (Mus musculus [13]): Active | inhibition (RAW264.7 [15]): Active; Result Indicates Compound Suppresses Mapk Pathway | Activity (Mus musculus [16]): Active | Activity (Mus musculus [17]): Active | inhibition (HBE [20]): Dose-dependent-effect | inhibition at 5 µM [23]: 83% | Activity (Mus musculus [24]): Active | inhibition (RAW264.7 [25]): Dose-dependent-effect | Activity (Mus musculus [27]): Active | Activity (Mus musculus [29]): Active | inhibition at 5 µM [30]: 85%
